Measurements taken from patent US20030073654A1, “Stabilized transient gene expression” (Genespan Corporation, priority 1996, published 2003).

Key:
[1] = tested on: SW480 P3 (ATCC #CCL228) human colon carcinoma cells; assay: Screening assay for enhancement of transient expression (β-galactosidase gene, liposomal transfection, 6-well plates); assay type: cell-based; conditions: for G Factor (G14): Table 1, values without asterisk, days 4-14 after transfection; for X Factor / K Factor: Table 1; for X Factor: cumulative β-galactosidase vs control, first four days after transfection, compound at the mM given in the table; for K Factor: ratio of first order rate constants of change in expression, control vs compound
From the text: These parameters are called the “X” factor, the “G” factor, and the “K” factor. [formula]
This factor reflects the extent to which a chemical compound added to a transfected cell enhances stabilizes transient expression for the first four days following transfection. […] For example, if expression is doubled in the presence of a compound, […]. […] X may be calculated similarly when the agent in question is a mixture of more than one chemical compound.
Cumulative protein expression, i.e., the values for “A” and “C”, is measured by summing the values measured daily in aliquots of the cultured cells.
2. G factors. G factors differ from the X factor only with respect to the time period evaluated. For calculating a G factor, the amount of protein expressed is measured from days 4-7 or days 4-14, where day 0 is the day on which the foreign DNA is added to the cells. The subscripts denote which of the two time periods provided the basis for measurement. […] As for the X factor, [formula]
3. K factor. The K factor is the ratio of the rate constants for the change in the foreign DNA expression in control transfected cells and in cells exposed to a chemical compound of the subject invention. K is determined according to the following equation: [formula]
wherein “k(DNA)” is the first order rate constant for the change in concentration of the protein expressed from the transgenic DNA, which is expressing protein as a function of time, i.e., [formula]
Values for k(DNA) are derived by using a computer program that plots the log of the foreign protein concentration against time, using the results of transgenic protein measurements that begin about 24 hours after the foreign DNA has been added to the cell. […] However, the program calculates a “best fit” line for each data set, and determines the slope of that portion of the resulting line that corresponds to the period during which protein production is changing. […] Thus, the slope is calculated during this period of decline to provide values for k(DNA) and K that can be compared for the purpose of comparing the efficacy of different chemical compounds.
SW480 P3 (ATCC #CCL228) human colon carcinoma cells (typically, 1×10^6 cells) were plated in the wells of a 6-well tissue culture plate. The number of wells plated reflected the number of days post-transfection during which the experiment would proceed. Each well contained 1 ml of complete media from a 30 ml stock solution containing: 26.4 ml RPMI tissue culture medium, 4 mM L-glutamine, 3.0 ml fetal bovine serum, and 10 μg/ml gentamicin. Cells were cultured at 37° C. in a CO2 incubator with 10% CO2 for 24 hours after being plated, during which time the cells adhered to the plates.
After the 24 hour pre-incubation step, the transfection step was carried out by removing the RPMI and adding 900 μL OPTI-MEM® (Gibco) medium containing 2 μg of VR1412 DNA (Vical, Inc., San Diego, Calif.), which expresses the bacterial β-galactosidase gene under the control of a cytomegalovirus promoter, and 8 μg of a mixture of cationic lipid (1,2-dimyristyloxyproply-3-dimethyl-hydroxyethyl ammonium bromide (e.g., “DMRIE/DOPE”) mixed in equimolar proportions with dioleoylphosphatidylethanolamine) to yield a lipid:DNA molar ratio of 0.99:1. It should be noted that typical transient transfection protocols employ 10 μg DNA per 10^6 cells, but the protocol described here uses less DNA in order to reduce toxicity to the cells. The plates were then incubated for 4 hours at 37° C.
After the 4 hour incubation step, 100 μl of heat deactivated fetal bovine serum (to stop transfection), plus 12.0 μl of 50 mg/ml gentamicin were added to each well.

[2] = pH of aqueous solutions of the compounds; assay type: physicochemical; conditions: stock solutions prepared in culture media diluted with deionized water
Procedure: The pH values shown in Table 1 were determined in aqueous solutions made by diluting stock solutions prepared in culture media with deionized water.

[3] = Table 1, days 4-7 after transfection

Molecule	G Factor (G14) [1]	X Factor [1]	K Factor [1]	pH (H20) [2]	pH (H20) ([2]; listed as glutathione)	G Factor (G7) ([1]; Table 1, values marked with asterisk, days 4-7 after transfection)	G Factor (G7) [1, 3]	effect on transient expression [1]
N[C@@H](CCC(=O)N[C@@H](CS)C(=O)NCC(=O)O)C(=O)O [GLUTATHIONE]	34	2	1	3.58	~3			
NCC(=O)O [GLYCINE]	40	−.34	2	7.27				
O=C(O)CNC(=O)c1ccccc1 [HIPPURIC ACID]	33	2	1	6.46				
N[C@@H](Cc1c[nH]cn1)C(=O)O [HISTIDINE]	6		1, 1	6.75		54		
N[C@@H](CCO)C(=O)O [HOMOSERINE]	39	77		7.4				
CC[C@H](C)[C@H](N)C(=O)O [ISOLEUCINE]	30	−119		6.99				
N=C(N)NCCC[C@H](N)C(=O)O [L-ARGININE]	57			8.66			11	
NC(=O)CC[C@H](N)C(=O)O [L-GLUTAMINE]	23	−13		7.14				
NCCCC[C@H](N)C(=O)O [L-LYSINE]	−10			8.34			9	
C[C@@H](O)[C@H](N)C(=O)O [L-THREONINE]	40	28	1	8.14				
CC(C)C[C@H](N)C(=O)O [LEUCINE]	32	−13		7.88				
CSCC[C@H](N)C(=O)O [METHIONINE]	36	2	0	7.41				
CCOC(=O)CC[C@H](NCc1ccc(N)cc1)C(=O)OCC [N-(4-AMINOBENZYL)-L-GLUTAMIC DIETHYLESTER]	8	−35		6.44				
CSCC[C@H](NC=O)C(=O)O [N-FORMYL-L-METHIONINE]	63	26		4.34				
O=C(O)c1cccnc1 [NICOTINIC ACID]	87	12	1	6.91				
N[C@@H](Cc1ccccc1)C(=O)O [PHENYLALANINE]	53	−12	3	6.97				
O=C(O)[C@@H]1CCCN1 [PROLINE]	21	−22		7.71				
NC(=O)SC[C@H](N)C(=O)O [S-CARBAMYL-L-CYSTEINE]	−74	−76		6.52				
N[C@@H](CO)C(=O)O [SERINE]	104	43	1	7.4				
O=C([O-])c1ccccc1.[Na+] [SODIUM BENZOATE]	−6	−15	1	8.14				
NCCS(=O)(=O)O [TAURINE]	34	−20	2	7.88				
N[C@@H](Cc1c[nH]c2ccccc12)C(=O)O [TRYPTOPHAN]	67	55	2	6.25				
N[C@@H](Cc1ccc(O)cc1)C(=O)O [TYROSINE]	52	36	2	7.88				
CC(C)[C@H](N)C(=O)O [VALINE]	40	−18	2	8.12				
C[C@H](N)C(=O)O [α-ALANINE]	35	31		7.27				
CCC(N)C(=O)O (stereo not drawn) [α-AMINO-n-BUTYRIC ACID]	35	−.19	1	7.58				
O=C(O)CCC(=O)C(=O)O [α-KE[…]]	53	7.28		3.75				
NCCC(=O)O [β-ALANINE]	33	0.2	1	8.38				
O=S(=O)(O)CC(O)CN(CCO)CCO (stereo not shown) [′3-[BIS(2HYDROXYETHYL AMINO)]-2-HYDROXYL-′1-PROPANE SULFONIC ACID]	−10	−55		6.81				
MELANIN				3.45				significantly suppress transient expression
